Measured values taken from ChEMBL document CHEMBL1137757, “Combinatorial chemistry in the agrosciences” (Bioorg Med Chem, 2009).

Columns and labels:
[1] = Inhibition of anthranilate synthase
[2] = Inhibition of Arabidopsis 4-hydroxyphenylpyruvate dioxygenase
[3] = target: 4-hydroxyphenylpyruvate dioxygenase (Rattus norvegicus, UniProt P32755); assay: Inhibition of rat 4-hydroxyphenylpyruvate dioxygenase
Chain of 4-hydroxyphenylpyruvate dioxygenase (P32755 whole entry): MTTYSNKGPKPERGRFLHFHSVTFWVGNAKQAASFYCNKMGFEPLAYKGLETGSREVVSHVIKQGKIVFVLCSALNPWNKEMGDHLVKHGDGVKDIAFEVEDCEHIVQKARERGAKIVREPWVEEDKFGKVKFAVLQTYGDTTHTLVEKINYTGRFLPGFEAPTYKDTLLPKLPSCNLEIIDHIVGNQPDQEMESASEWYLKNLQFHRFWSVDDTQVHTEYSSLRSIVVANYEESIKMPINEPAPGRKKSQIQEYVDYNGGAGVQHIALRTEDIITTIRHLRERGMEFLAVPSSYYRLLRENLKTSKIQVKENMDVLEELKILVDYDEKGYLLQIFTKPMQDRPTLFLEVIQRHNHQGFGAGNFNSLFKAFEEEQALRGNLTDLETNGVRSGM

| Compound | IC50 [1] | IC50 [2] | IC50 [3] |
| --- | --- | --- | --- |
| O=C(O)c1cccc(/C(=N/OCCc2ccc(Cl)cc2)c2cccc(C(F)(F)F)c2)c1 | 3.2 µM |  |  |
| O=C(NCCCCC1C(=O)/C(=C(\O)C2CC2)C(=O)N1Cc1ccc(F)cc1)c1ccc(Cl)nc1 (stereo unspecified) |  | 0.02 µM | 3.9 µM |
| O=C(NCCCCC1C(=O)/C(=C(\O)C2CCC2)C(=O)N1Cc1ccccc1)Nc1cccc(Cl)c1 (stereo unspecified) |  | 0.158 µM | ≥ 10 µM |
| O=C(O)COc1ccccc1/C=N/OCc1cc(Cl)ccc1Cl | 3.2 µM |  |  |
